Assay [1] deals with HeLa human cervical tumour cells. Kind of assay: Proliferation assay (crystal violet), HeLa. The class given is cell-based. Conditions: read-out: Inhibition of HeLa cell proliferation.
The target in another assay is T1, CDK2/CycE (Homo sapiens, UniProt P24941).
T1 construct: GST; purchased ProQinase GmbH (Freiburg, Germany); host or cells: insect cells (Sf9)
Kind of assay: CDK2/CycE kinase assay (TR-FRET). The class given is biochemical. The conditions noted are these: Method 2, 10 μM ATP. An outline of the steps:
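GST-CDK2/GST-CycE (Sf9-expressed, ~130 ng/ml) pre-incubated with compound 15 min, then reacted 25 min at 22 °C with 10 μM ATP and 0.75 μM biotinylated peptide in Tris pH 8.0. Phospho-substrate detected by TR-FRET (anti-pRb pSer807/811, Eu/XL665), 665/620 nm ratio.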
For orientation: Time-resolved FRET reads energy transfer from a long-lived donor to a nearby acceptor.

In another assay the target is T2, CDK9/CycT1 (Homo sapiens, UniProt P50750).
T2 construct: Recombinant full-length His-tagged human CDK9 and CycT1; His; purchased Invitrogen PV4131; host or cells: insect cells
T2 sequence (P50750 whole entry): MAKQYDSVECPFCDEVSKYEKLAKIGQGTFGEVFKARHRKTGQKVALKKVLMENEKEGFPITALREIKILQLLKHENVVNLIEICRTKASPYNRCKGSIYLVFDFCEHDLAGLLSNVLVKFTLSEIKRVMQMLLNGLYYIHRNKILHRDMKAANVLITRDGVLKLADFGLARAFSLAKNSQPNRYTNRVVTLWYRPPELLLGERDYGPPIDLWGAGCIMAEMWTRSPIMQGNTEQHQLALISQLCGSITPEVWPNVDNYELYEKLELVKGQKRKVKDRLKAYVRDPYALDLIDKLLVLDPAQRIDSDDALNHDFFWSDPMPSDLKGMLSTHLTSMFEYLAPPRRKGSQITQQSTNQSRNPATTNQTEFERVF
T2 sequence (O60563 whole entry partner): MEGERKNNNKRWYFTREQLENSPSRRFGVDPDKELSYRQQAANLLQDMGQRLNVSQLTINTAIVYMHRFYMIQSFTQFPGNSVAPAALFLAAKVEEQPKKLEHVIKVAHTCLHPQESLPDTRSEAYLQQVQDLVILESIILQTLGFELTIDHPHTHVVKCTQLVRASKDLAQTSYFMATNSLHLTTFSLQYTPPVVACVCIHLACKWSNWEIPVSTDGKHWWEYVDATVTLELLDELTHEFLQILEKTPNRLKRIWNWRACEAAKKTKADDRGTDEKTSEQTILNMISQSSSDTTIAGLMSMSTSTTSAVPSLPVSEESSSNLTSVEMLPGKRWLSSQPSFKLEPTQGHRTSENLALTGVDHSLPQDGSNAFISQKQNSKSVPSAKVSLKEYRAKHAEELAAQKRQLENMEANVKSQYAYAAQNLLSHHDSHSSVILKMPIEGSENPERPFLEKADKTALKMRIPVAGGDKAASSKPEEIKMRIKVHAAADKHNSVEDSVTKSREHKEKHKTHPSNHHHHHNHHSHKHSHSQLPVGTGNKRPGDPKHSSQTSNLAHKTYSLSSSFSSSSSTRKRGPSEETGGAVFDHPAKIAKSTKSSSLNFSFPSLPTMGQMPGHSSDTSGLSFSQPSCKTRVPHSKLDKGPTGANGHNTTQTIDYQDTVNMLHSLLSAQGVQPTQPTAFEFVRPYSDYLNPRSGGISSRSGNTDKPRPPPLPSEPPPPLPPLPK
Kind of assay: CDK9/CycT1 kinase assay (TR-FRET). The conditions noted are these: Method 1, 10 μM ATP. The class given is biochemical. The method in brief:
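Full-length His-tagged human CDK9/CycT1 (insect-cell expressed), 15 min compound pre-incubation, then 25 min at 22 °C with 10 µM ATP (final) and 1 µM biotinylated peptide (final) in Tris pH 8.0/MgCl2 buffer. Phospho-substrate detected by TR-FRET (anti-RB pSer807/pSer811, Eu anti-mouse IgG, streptavidin-XL665); 665/622 nm emission ratio as read-out.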

Each structure is given as a SMILES string.

`COc1cc(F)ccc1-c1ncnc(Nc2cccc(CS(=O)(=O)C(C)C)c2)n1` [Example 24, 4-(4-Fluoro-2-methoxyphenyl)-N-{3-[(propan-2-ylsulfonyl)methyl]phenyl}-1,3,5-triazin-2-amine]: the IC50 turned out to be 1 µM in assay [1], 0.68 µM against CDK2/CycE and 0.007 µM against CDK9/CycT1.

On to `CCCCCOc1cc(F)ccc1-c1ncnc(Nc2cccc(CS(C)(=O)=O)c2)n1` [Example 45, 4-[4-Fluoro-2-(pentyloxy)phenyl]-N-{3-[(methylsulfonyl)-methyl]phenyl}-1,3,5-triazin-2-amine], for which the IC50 in assay [1] amounted to 1 µM; against CDK2/CycE it was 0.99 µM; on CDK9/CycT1, 0.004 µM.

As for `CCCOc1cc(F)ccc1-c1ncnc(Nc2cccc(CS(C)(=O)=O)c2)n1` [Example 43, 4-(4-Fluoro-2-propoxyphenyl)-N-{3-[(methylsulfonyl)-methyl]phenyl}-1,3,5-triazin-2-amine], the IC50 in assay [1] was determined as 1.1 µM; against CDK2/CycE, 0.86 µM; against CDK9/CycT1, 0.012 µM.

As to `COCCOc1cc(F)ccc1-c1ncnc(Nc2cccc(CS(C)(=O)=O)c2)n1` [Example 50, 4-[4-Fluoro-2-(2-methoxyethoxy)phenyl]-N-{3-[(methylsulfonyl)methyl]-phenyl}-1,3,5-triazin-2-amine], the IC50 in assay [1] was determined as 2.9 µM; against CDK2/CycE it was 0.49 µM; against CDK9/CycT1, 0.038 µM.

As to `COc1cnccc1-c1ncnc(Nc2cccc(CS(C)(=O)=O)c2)n1` [Example 8, 4-(3-Methoxypyridin-4-yl)-N-{3-[(methylsulfonyl)methyl]phenyl}-1,3,5-triazin-2-amine], the results for the IC50 (in assay [1]; against CDK2/CycE; against CDK9/CycT1) were 1.5 µM, 4.7 µM and 0.037 µM, respectively.

In the case of `CS(=O)(=O)Cc1cccc(Nc2ncnc(-c3ccc(F)cc3OCc3cccc(F)c3F)n2)c1` [Example 80, 4-{2-[(2,3-Difluorobenzyl)-oxy]-4-fluorophenyl}-N-{3-[(methylsulfonyl)-methyl]phenyl}-1,3,5-triazin-2-amine], the IC50 worked out at 0.89 µM in assay [1], 2 µM against CDK2/CycE and 0.021 µM on CDK9/CycT1.

Take `CC(C)CCCOc1cc(F)ccc1-c1ncnc(Nc2cccc(CS(C)(=O)=O)c2)n1` [Example 47, 4-{4-Fluoro-2-[(4-methylpentyl)oxy]phenyl}-N-{3-[(methylsulfonyl)-methyl]phenyl}-1,3,5-triazin-2-amine]: the IC50 in assay [1] was 1 µM; at CDK2/CycE, 1.2 µM; on CDK9/CycT1, 0.005 µM.

In the case of `COc1cc(F)ccc1-c1ncnc(Nc2cc(Cl)cc(CS(C)(=O)=O)c2)n1` [Example 39, N-{5-Chloro-3-[(methylsulfonyl)methyl]phenyl}-4-(4-fluoro-2-methoxyphenyl)-1,3,5-triazin-2-amine], the IC50 in assay [1] was 0.28 µM; against CDK2/CycE, 0.19 µM; against CDK9/CycT1, 0.009 µM.

Consider `CC(C)S(=O)(=O)Cc1cccc(Nc2ncnc(-c3ccccc3OCc3ccc(F)cc3)n2)c1` [Example 37, 4-{2-[(4-Fluorobenzyl)oxy]phenyl}-N-{3-[(prop-2-ylsulfonyl)methyl]phenyl}-1,3,5-triazin-2-amine], for which the IC50 in assay [1] stood at 1.1 µM; against CDK2/CycE, 2.5 µM; against CDK9/CycT1, 0.009 µM.

Take `CS(=O)(=O)Cc1cccc(Nc2ncnc(-c3ccc(F)cc3OCc3ccc(F)c(F)c3F)n2)c1` [Example 72, 4-{4-Fluoro-2-[(2,3,4-trifluorobenzyl)oxy]-phenyl}-N-{3-[(methylsulfonyl)methyl]-phenyl}-1,3,5-triazin-2-amine]: the IC50 in assay [1] is 1.16 µM; against CDK2/CycE it was at least 20 µM; against CDK9/CycT1, 0.007 µM.

`CS(=O)(=O)Cc1cccc(Nc2ncnc(-c3ccc(F)cc3OCc3ccc(Cl)cc3)n2)c1` [Example 76, 4-{2-[(4-Chlorobenzyl)oxy]-4-fluorophenyl}-N-{3-[(methylsulfonyl)methyl]phenyl}-1,3,5-triazin-2-amine]: the IC50 in assay [1] turned out to be 1 µM; against CDK2/CycE it was 0.71 µM; at CDK9/CycT1, 0.006 µM.

As for `CS(=O)(=O)Cc1cccc(Nc2ncnc(-c3ccc(F)cc3OCc3cccc(C(F)(F)F)c3)n2)c1` [Example 69, 4-(4-Fluoro-2-{[3-(trifluoromethyl)benzyl]oxy}phenyl)-N-{3-[(methylsulfonyl)-methyl]phenyl}-1,3,5-triazin-2-amine], the IC50 was determined as 1.3 µM in assay [1], 1.3 µM against CDK2/CycE and 0.004 µM at CDK9/CycT1.

As to `CC(C)COc1cc(F)ccc1-c1ncnc(Nc2cccc(CS(C)(=O)=O)c2)n1` [Example 58, 4-[4-Fluoro-2-(2-methylpropoxy)phenyl]-N-{3-[(methylsulfonyl)methyl]phenyl}-1,3,5-triazin-2-amine], the IC50 in assay [1] turned out to be 1.7 µM; on CDK2/CycE it was 5.1 µM; against CDK9/CycT1, 0.046 µM.

Regarding `CS(=O)(=O)Cc1cccc(Nc2ncnc(-c3ccc(F)cc3OCC(F)F)n2)c1` [Example 60, 4-[2-(2,2-Difluoroethoxy)-4-fluorophenyl]-N-{3-[(methylsulfonyl)methyl]phenyl}-1,3,5-triazin-2-amine], the IC50 in assay [1] amounted to 1.1 µM; at CDK2/CycE, 1.2 µM; against CDK9/CycT1, 0.022 µM.

For `CS(=O)(=O)Cc1cccc(Nc2ncnc(-c3ccc(F)cc3OCCC3CC3)n2)c1` [Example 48, 4-[2-(2-Cyclopropylethoxy)-4-fluorophenyl]-N-{3-[(methylsulfonyl)methyl]phenyl}-1,3,5-triazin-2-amine], the IC50 in assay [1] amounted to 1 µM; against CDK2/CycE, 1.3 µM; at CDK9/CycT1, 0.029 µM.

`CS(=O)(=O)Cc1cccc(Nc2ncnc(-c3cccc4c3OCC4)n2)c1` [Example 13, 4-(2,3-Dihydro-1-benzofuran-7-yl)-N-{3-[(methylsulfonyl)methyl]phenyl}-1,3,5-triazin-2-amine]: the IC50 in assay [1] amounted to 0.95 µM; at CDK2/CycE, 0.71 µM; at CDK9/CycT1, 0.015 µM.

For `CS(=O)(=O)Cc1cccc(Nc2ncnc(-c3ccc(F)cc3OCc3ccccc3F)n2)c1` [Example 71, 4-{4-Fluoro-2-[(2-fluorobenzyl)oxy]phenyl}-N-{3-[(methylsulfonyl)-methyl]phenyl}-1,3,5-triazin-2-amine], the IC50 stood at 1.17 µM in assay [1], 2.2 µM against CDK2/CycE and 0.012 µM against CDK9/CycT1.

As to `[2H]C([2H])([2H])Oc1ccccc1-c1ncnc(Nc2cccc(CS(C)(=O)=O)c2)n1` [Example 22, 4-{2-[(^2H3)methyloxy]phenyl}-N-{3-[(methylsulfonyl)methyl]phenyl}-1,3,5-triazin-2-amine], the IC50 stood at 1.4 µM in assay [1], 2.5 µM against CDK2/CycE and 0.023 µM on CDK9/CycT1.

(Values after patent US8916557B2, “Substituted 4-Aryl-N-phenyl-1,3,5-triazin-2-amines” (Bayer Intellectual Property GmbH, priority 2011, dated 2014).)
